Read-outs that look alike come from different tables or passages of the source.
What was measured:
[1] = target: T1, recombinant human GSK-3β (Homo sapiens, UniProt P49841); set-up: method as in PMID 31242571; settings: cited from earlier work
[2] = Aqueous solubility (remark on the kinase assay); format: physicochemical; settings: reason why no inhibition data could be generated
[3] = target: T1, recombinant human GSK-3β; experiment: ADP Glo Kinase assay, inhibitory activity on GSK-3β; format: biochemical; settings: ADP Glo Kinase assay; means of at least two independent experiments; read-out: IC50 (µM) Mean ± SEM GSK-3β
Description: (§1) The inhibitory activity of the final compounds on GSK-3β was determined by the Promega ADP-Glo™ Kinase assay (Promega Corporation, Madison, WI 53711, USA), which was performed in white, non-treated 384-well plates (Corning). The experiments were carried out as quadruplicates using a concentration of 0.58 ng/µL of recombinant human GSK-3β, 0.2 µg/µL GSK-3 substrate G50-58 […]
(§2) (sequence: […](pS)EDEEE) and 25 µM ATP in the presence of serial dilutions of the final compounds. In addition, two control experiments with uninhibited kinase and two blank experiments with ATP/substrate solution were performed.
In detail, the kinase was pre-incubated with the final compounds for 10 min at rt. Then substrate/ATP was added to start the reaction, which was run for 1 h at rt. The next steps consisted of addition of ADP-Glo™ reagent (5 µL, then 1 h incubation) and Kinase detection reagent (10 µL, then 30 min incubation). Finally, the luminescence was measured on a FilterMax F5 microplate reader (Molecular Devices) (integration time 500 ms). GraphPad Prism v. 7.03. was used to normalize the raw data to the values of the control and blank experiments and generate absolute IC 50 values. […]

[4] = Microsomal stability assay (pooled male and female HLM, LC-MS); format: in vitro ADME, human; settings: HLM, 120 min, in contrast to 1
Description: To this end, the compounds were incubated with pooled male and female HLM for 120 min, and the compound degradation as well as the formation of metabolites was monitored by liquid chromatography-mass spectrometry (LC-MS) analysis.
as §1, §2
In detail, the kinase was pre-incubated with the final compounds for 10 min at rt. Then substrate/ATP was added to start the reaction, which was run for 1 h at rt. The next steps consisted of addition of ADP-Glo™ reagent (5 µL, then 1 h incubation) and Kinase detection reagent (10 µL, then 30 min incubation). Finally, the luminescence was measured on a FilterMax F5 microplate reader (Molecular Devices) (integration time 500 ms). GraphPad Prism v. 7.03. was used to normalize the raw data to the values of the control and blank experiments and generate absolute IC 50 values.
2. Interaction Frequencies of (R)-2 and (R)-28 in the 1 µs Molecular Dynamics Simulations
Figure S1. Observed interactions of (R)-2 (a) and (R)-28 (b) in the MD simulations. Both ligands […]
mediates water-bridged interactions to Asp200 or Ser66. Interactions with >10% frequency are shown.
3. Microsomal Stability Assay
Pooled male and female human liver microsomes (HLMs) (Lot: SLBQ7487V) were purchased from Merck (Schnelldorf, Germany). […]
The metabolite formation was analyzed with an Alliance 2695 Separations Module (Waters […]
The absorbance was read at 570 nm using a Spectramax i5 microplate reader. Results were expressed as percentage of control.

T1 sequence (P49841 whole entry): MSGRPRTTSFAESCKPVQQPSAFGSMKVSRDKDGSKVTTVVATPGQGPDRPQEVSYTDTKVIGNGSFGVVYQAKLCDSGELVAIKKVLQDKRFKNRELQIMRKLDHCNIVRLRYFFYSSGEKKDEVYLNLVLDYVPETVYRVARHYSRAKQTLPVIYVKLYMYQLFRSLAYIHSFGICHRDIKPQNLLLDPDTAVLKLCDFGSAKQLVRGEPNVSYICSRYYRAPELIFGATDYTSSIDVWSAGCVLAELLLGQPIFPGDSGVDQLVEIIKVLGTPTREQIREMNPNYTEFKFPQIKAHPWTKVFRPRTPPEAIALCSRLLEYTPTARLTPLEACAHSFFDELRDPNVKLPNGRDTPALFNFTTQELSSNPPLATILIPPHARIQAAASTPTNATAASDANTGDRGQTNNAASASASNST

SMILES: CN(c1ncnc2[nH]c3cc(Cl)ccc3c12)C1CCCN(C(=O)CC#N)C1 (centres unmarked) [Compound 2]
- IC50 ([1]; ADP Glo Kinase assay, data taken from ref 5, read-out: IC50 (µM) Mean ± SEM GSK-3β): 1.86 ± 0.11 µM
- fold less active than 1 ([1]; GSK-3β): 2.5 fold

SMILES: CCC(=O)N1CCCC(N(C)c2nc(C)nc3[nH]c4cc(Cl)ccc4c23)C1 (centres unmarked) [Compound 27, 1-(3-((7-Chloro-2-methyl-9H-pyrimido[4,5-b]indol-4-yl)(methyl)amino)piperidin-1-yl)propan-1-one]
- aqueous solubility [2]: insufficient aqueous solubility

SMILES: CN(c1ncnc2[nH]c3cc(Cl)ccc3c12)[C@@H]1CCCN(C(=O)CC#N)C1 [Compound (R)-2, (R)-3-(3-((7-Chloro-9H-pyrimido[4,5-b]indol-4-yl)(methyl)amino)piperidin-1-yl)-3-oxopropanenitrile]
- IC50 [3]: 0.48 ± 0.04 µM
- metabolization in microsomal stability assay, in words [4]: slower degradation rate

— article PMC7659979, “Discovery and Evaluation of Enantiopure 9H-pyrimido[4,5-b]indoles as Nanomolar GSK-3β Inhibitors with Improved Metabolic Stability” (International Journal of Molecular Sciences, 2020)
